One test has as its system Escherichia coli. As to conditions: for MIC value: Table 15, unit inferred. As for the experimental part:
(§1) MIC screening of the peptides against a panel of ATCC and clinical strains was performed using broth microdilution method.^1 Briefly, peptides stock solutions in DMSO (0.1/G TFA) were diluted into Mueller Hinton Broth (MHB), followed by two-fold serial dilution in a 96-well plate. Bacteria culture in mid-log phase was diluted into MHB to yield […] colony-forming units (CFU)/mL. Equal volume of the starting inoculum was added to the peptide samples, then incubated for 18-20 h (37° C., 120 rpm). OD600 of the samples was then measured using Tecan Infinite M200 (TECAN, Männedorf, Switzerland). MIC is defined as the lowest peptide concentration to achieve more than 90% reduction in OD600 relative to the drug-free control. The experiments were repeated three times. Colistin-resistant clinical isolates are a kind gift from Dr. Jeanette Koh (National University Hospital, Singapore). Multidrug-resistant clinical isolates are a kind gift from Dr. Lakshminarayanan Rajamani (Singapore Eye Research Institute, Singapore).
(§2) Kanamycin and ampicillin were used as antibacterial control agents. […] Then, sequential 2-fold serial dilutions of the mix were diluted in 50 μL MH broth and 50 μL cell cultures were added to wells. […] All assays were carried out in triplicate.

The next test relates to Enterobacter cloacae. As to conditions: Table 15, unit inferred. As for the experimental part: as §1, §2
The subject of another test is Klebsiella pneumoniae. The conditions noted are these: Table 15, unit inferred. As for the experimental part: as §1, §2
For the next test, the system named is Acinetobacter baumannii. The conditions noted are these: Table 15, unit inferred. As for the experimental part: as §1, §2
A further test concerns Pseudomonas aeruginosa. It is filed as cell-based. The conditions noted are these: Table 15, unit inferred. The source says: The experiments were repeated three times.
In test [1] the test system is Gram-positive and Gram-negative bacteria. The conditions noted are these: panel of E. coli, K. pneumoniae, E. cloacae, A. baumannii, E. faecalis and S. aureus; preliminary screening. On the procedure: as §1, §2
Setting [2] is: ATCC 25922, printed under Klebsiella pneumoniae.
The mark [3] stands for this setting: Acinetobacter baumanii ACβA1001.
Where [4] appears, read: Acinetobacter baumanii ACβA1002.
Where [5] appears, read: Acinetobacter baumanii ACβA1003.
[6] abbreviates: Acinetobacter baumanii ACβA1004.
Where [7] appears, read: Pseudomonas aeruginosa DR4877/07.
The mark [8] stands for this setting: Pseudomonas aeruginosa DR5790/07.

≈ marks a conversion by molar mass, not a printed value. Read-outs that look alike come from different tables or passages of the source. No end group written: not given here.

Consider WVNAYARWTKRF [SEQ ID 26], for which, in the test with Escherichia coli (strain not stated, product produced and tested against E. coli), the “MIC (E. coli)” value was 8 µg/mL.

On to `CC(C)[C@@H]1NC(=O)[C@@H](N)Cc2c[nH]c3cc(ccc23)C(C(N)=O)[C@@H](C(=O)N[C@@H](C)C(=O)N[C@H]2Cc3cccc(c3)C(CCNC(=N)N)[C@@H](C(=O)N[C@H]3Cc4c[nH]c5cc(ccc45)C(CCNC(=N)N)[C@@H](C(=O)N[C@@H](CCCNC(=N)N)C(=O)N[C@@H](Cc4c[nH]c5ccccc45)C(=O)O)NC(=O)[C@H](CO)NC3=O)NC(=O)[C@H](C)NC2=O)NC1=O` (stereo partly shown) [xenorceptide A11], for which the MIC value amounted to 4 µg/mL (≈ 2.46 µM) in the test on Enterobacter cloacae (Enterobacter cloacae CRE1010); 8 µg/mL (≈ 4.91 µM) against Enterobacter cloacae (Enterobacter cloacae CRE1014); 16 µg/mL (≈ 9.82 µM) in the test with Enterobacter cloacae (Enterobacter cloacae CRE1015); 8 µg/mL (≈ 4.91 µM) against Enterobacter cloacae (Enterobacter cloacae CRE1016); 16 µg/mL (≈ 9.82 µM) in the test on Enterobacter cloacae (Enterobacter cloacae CRE1017); 1 µg/mL (≈ 0.614 µM) with Klebsiella pneumoniae (setting [2]). Further, the MIC value in the test on Klebsiella pneumoniae (CRE1006, Klebsiella pneumoniae) worked out at 4 µg/mL (≈ 2.46 µM); in the test on Klebsiella pneumoniae (Klebsiella pneumoniae CRE 1007), 4 µg/mL (≈ 2.46 µM); in the test on Klebsiella pneumoniae (Klebsiella pneumoniae CRE1008) it was 4 µg/mL (≈ 2.46 µM); in the test with Klebsiella pneumoniae (Klebsiella pneumoniae CRE1011) it was 4 µg/mL (≈ 2.46 µM); against Klebsiella pneumoniae (Klebsiella pneumoniae CRE1012), 4 µg/mL (≈ 2.46 µM); with Acinetobacter baumannii (setting [3]), 16 µg/mL (≈ 9.82 µM). Besides, the MIC value against Acinetobacter baumannii (setting [4]) was 16 µg/mL (≈ 9.82 µM); against Acinetobacter baumannii (setting [5]) it was 16 µg/mL (≈ 9.82 µM); against Acinetobacter baumannii (setting [6]) it was 16 µg/mL (≈ 9.82 µM); against Escherichia coli (Escherichia coli M2), 8 µg/mL (≈ 4.91 µM); against Escherichia coli (Escherichia coli M6), 4 µg/mL (≈ 2.46 µM); against Escherichia coli (Escherichia coli M10), 2 µg/mL (≈ 1.23 µM). The MIC value against Escherichia coli (Escherichia coli M11) amounted to 4 µg/mL (≈ 2.46 µM); against Pseudomonas aeruginosa (Pseudomonas aeruginosa DM4150R) it was 16 µg/mL (≈ 9.82 µM); against Pseudomonas aeruginosa (Pseudomonas aeruginosa DM23376), 16 µg/mL (≈ 9.82 µM); against Pseudomonas aeruginosa (setting [7]), 32 µg/mL (≈ 19.6 µM); in the test with Pseudomonas aeruginosa (setting [8]), 32 µg/mL (≈ 19.6 µM).

Take `C[C@H](NC(=O)[C@H]1NC(=O)[C@H](C)NC(=O)[C@@H](N)Cc2ccc(cc2)C1C(N)=O)C(=O)N[C@H](C(=O)N[C@H]1Cc2c[nH]c3cc(ccc23)C(CCCN)[C@@H](C(=O)N[C@@H](CO)C(=O)N[C@@H](Cc2ccccc2)C(=O)O)NC(=O)[C@H](CO)NC1=O)[C@@H](C)O` (stereo partly shown) [Compound 30]: in test [1], the antibacterial activity result is given as “no activity”.

In the case of `CC(C)C[C@H](NC(=O)[C@H]1NC(=O)[C@H](Cc2ccccc2)NC(=O)[C@@H](NC(=O)[C@@H](NC(=O)[C@H](CCC(=O)O)NC(=O)[C@H](C)NC(=O)[C@@H](NC(=O)[C@H](CO)NC(=O)[C@H](C)N)[C@@H](C)O)[C@@H](C)O)Cc2c[nH]c3cc(ccc23)C1CCCN)C(=O)N[C@@H](CC(=O)O)C(=O)N[C@H]1Cc2c[nH]c3cc(ccc23)C(CCCN)[C@@H](C(=O)N[C@@H](CO)C(=O)N[C@@H](Cc2ccccc2)C(=O)O)NC(=O)[C@H](CCCCN)NC1=O` (stereo partly shown) [Compound 21], the antibacterial activity result in test [1] is reported as “no activity”.

Turning to `CC(C)[C@@H]1NC(=O)[C@@H](N)Cc2c[nH]c3cc(ccc23)C(C(N)=O)[C@@H](C(=O)N[C@@H](C)C(=O)N[C@H]2Cc3cccc(c3)C(CCNC(=N)N)[C@@H](C(=O)N[C@H]3Cc4c[nH]c5cc(ccc45)C(CCCN)[C@@H](C(=O)N[C@@H](CCCNC(=N)N)C(=O)N[C@@H](Cc4ccccc4)C(=O)O)NC(=O)[C@H](CO)NC3=O)NC(=O)[C@H](C)NC2=O)NC1=O` (stereo partly shown) [xenorceptide A12-2], the MIC value with Enterobacter cloacae (Enterobacter cloacae CRE1010) came to 2 µg/mL (≈ 1.28 µM); with Enterobacter cloacae (Enterobacter cloacae CRE1014), 32 µg/mL (≈ 20.5 µM); against Enterobacter cloacae (Enterobacter cloacae CRE1015) it was 16 µg/mL (≈ 10.2 µM); against Enterobacter cloacae (Enterobacter cloacae CRE1016), 16 µg/mL (≈ 10.2 µM); against Enterobacter cloacae (Enterobacter cloacae CRE1017), 32 µg/mL (≈ 20.5 µM); with Klebsiella pneumoniae (setting [2]), 1 µg/mL (≈ 0.64 µM). For the same compound, the MIC value in the test on Klebsiella pneumoniae (CRE1006, Klebsiella pneumoniae) came to 2 µg/mL (≈ 1.28 µM); in the test on Klebsiella pneumoniae (Klebsiella pneumoniae CRE 1007), 4 µg/mL (≈ 2.56 µM); in the test on Klebsiella pneumoniae (Klebsiella pneumoniae CRE1008), 4 µg/mL (≈ 2.56 µM); with Klebsiella pneumoniae (Klebsiella pneumoniae CRE1011), 8 µg/mL (≈ 5.12 µM); with Klebsiella pneumoniae (Klebsiella pneumoniae CRE1012) it was 4 µg/mL (≈ 2.56 µM); with Acinetobacter baumannii (setting [3]) it was 16 µg/mL (≈ 10.2 µM). The MIC value against Acinetobacter baumannii (setting [4]) came to 8 µg/mL (≈ 5.12 µM); against Acinetobacter baumannii (setting [5]), 16 µg/mL (≈ 10.2 µM); in the test on Acinetobacter baumannii (setting [6]), 16 µg/mL (≈ 10.2 µM); in the test with Escherichia coli (Escherichia coli M2), 4 µg/mL (≈ 2.56 µM); in the test with Escherichia coli (Escherichia coli M6), 2 µg/mL (≈ 1.28 µM); against Escherichia coli (Escherichia coli M10), 2 µg/mL (≈ 1.28 µM). For the same compound, the MIC value with Escherichia coli (Escherichia coli M11) was 4 µg/mL (≈ 2.56 µM); with Pseudomonas aeruginosa (Pseudomonas aeruginosa DM4150R) it was 32 µg/mL (≈ 20.5 µM); in the test with Pseudomonas aeruginosa (Pseudomonas aeruginosa DM23376), 32 µg/mL (≈ 20.5 µM); against Pseudomonas aeruginosa (setting [7]) it was 32 µg/mL (≈ 20.5 µM); against Pseudomonas aeruginosa (setting [8]) it was 32 µg/mL (≈ 20.5 µM).
